Test results reported in ChEMBL document CHEMBL1156829 (Proc Natl Acad Sci U S A, 2008).

Legend:
Plasmodium falciparum [1] = assay: NOVARTIS: Inhibition of Plasmodium falciparum 3D7 (drug-susceptible) proliferation in erythrocyte-based infection assay; assay type: functional, organism-based; details: Plasmodium falciparum, 3D7
Plasmodium falciparum [2] = assay: NOVARTIS: Inhibition of Plasmodium falciparum W2 (drug-resistant) proliferation in erythrocyte-based infection assay; assay type: functional, organism-based; details: Plasmodium falciparum, W2; read-out: EC50
[3] = NOVARTIS: Cytotoxicity against human hepatocellular carcinoma cell line (Huh7); assay type: toxicity, cell-based, Huh-7; details: Huh7 cells (hepatocellular carcinoma cell line)

Question: For `COc1ccc(OC)c(-c2ccc(O)c(CNCCc3ccc(Cl)cc3)c2)c1`, which EC50 (Plasmodium falciparum [1]) is on record?
Answer: The EC50 was 987 nM.

Question: What about the EC50 (Plasmodium falciparum [2]) of the same compound?
Answer: Its EC50 is 749 nM.

Question: What about the CC50 [3] of the same compound?
Answer: Its CC50 is > 10000 nM.

Question: For `O=C(CCN1C(=O)C2CCCCC2C1=O)N1CCc2ccccc2C1` (stereo not given), which EC50 (Plasmodium falciparum [1]) is on record?
Answer: The EC50 was > 4850 nM.

Question: And the EC50 (Plasmodium falciparum [2])?
Answer: Its EC50 is 7490 nM.

Question: And the CC50 [3]?
Answer: The CC50 was > 100000 nM.

Question: For `O=C1NCCN1C(=O)C(c1ccccc1)c1ccccc1`, which EC50 (Plasmodium falciparum [1]) is on record?
Answer: The EC50 was > 1540 nM.

Question: And the EC50 (Plasmodium falciparum [2])?
Answer: Its EC50 is > 746 nM.

Question: And the CC50 [3]?
Answer: Its CC50 is > 10000 nM.

Question: Which EC50 (Plasmodium falciparum [1]) does the source give for `COC(=O)c1c(NC(=O)c2cc3ccccc3oc2=O)sc2c1CCC(C)C2` (stereo not given) here?
Answer: Its EC50 is > 12500 nM.

Question: What about the EC50 (Plasmodium falciparum [2]) of the same compound?
Answer: Its EC50 is > 7460 nM.

Question: And the CC50 [3]?
Answer: The CC50 was > 100000 nM.

Question: For `COc1cc2nc(CN(C)C(C)c3cccs3)nc(N3CCCC3)c2cc1OC` (stereo not given), which EC50 (Plasmodium falciparum [1]) is on record?
Answer: The EC50 was > 12500 nM.

Question: What about the EC50 (Plasmodium falciparum [2]) of the same compound?
Answer: The EC50 was 1990 nM.

Question: What about the CC50 [3] of the same compound?
Answer: The CC50 was 26400 nM.

Question: With `N#Cc1cccc(/C=C/C(=O)O)c1` as the compound, how does the EC50 (Plasmodium falciparum [1]) read?
Answer: The EC50 was 1650 nM.

Question: And the EC50 (Plasmodium falciparum [2])?
Answer: Its EC50 is 752 nM.

Question: And the CC50 [3]?
Answer: Its CC50 is > 10000 nM.

Question: With `COc1cc(NC(C)CCCN(Cc2ccc(Cl)cc2)C(=O)Nc2cccc(C(F)(F)F)c2)c2ncccc2c1` (stereo not given) as the compound, how does the EC50 (Plasmodium falciparum [1]) read?
Answer: The EC50 was 798 nM.

Question: And the EC50 (Plasmodium falciparum [2])?
Answer: Its EC50 is 332 nM.

Question: And the CC50 [3]?
Answer: The CC50 was > 4440 nM.

Question: With `Cc1cc(C)nc(SCc2cc(=O)c(OC(=O)c3cccc([N+](=O)[O-])c3C)co2)n1` as the compound, how does the EC50 (Plasmodium falciparum [1]) read?
Answer: The EC50 was > 12500 nM.

Question: And the EC50 (Plasmodium falciparum [2])?
Answer: The EC50 was > 7470 nM.

Question: What about the CC50 [3] of the same compound?
Answer: The CC50 was > 100000 nM.

Question: For `CCN(CC)CCCC(C)Nc1ccnc2ccc([N+](=O)[O-])cc12` (stereo not given), which EC50 (Plasmodium falciparum [1]) is on record?
Answer: Its EC50 is 249 nM.

Question: And the EC50 (Plasmodium falciparum [2])?
Answer: The EC50 was 747 nM.

Question: What about the CC50 [3] of the same compound?
Answer: Its CC50 is > 10000 nM.

Question: With `CCCCCCc1ccc(C(=O)N(CC(=O)Nc2cc(C(C)(C)C)nn2-c2ccc(Cl)c(Cl)c2)C(C)C)cc1` as the compound, how does the EC50 (Plasmodium falciparum [1]) read?
Answer: Its EC50 is 1390 nM.

Question: And the EC50 (Plasmodium falciparum [2])?
Answer: The EC50 was > 752 nM.

Question: And the CC50 [3]?
Answer: The CC50 was > 10000 nM.

Question: For `COc1ccc(C2=C/C(=C/c3cccc(OC)c3OC)C(=O)O2)cc1OC`, which EC50 (Plasmodium falciparum [1]) is on record?
Answer: The EC50 was 1140 nM.

Question: What about the EC50 (Plasmodium falciparum [2]) of the same compound?
Answer: The EC50 was > 751 nM.

Question: And the CC50 [3]?
Answer: The CC50 was > 10000 nM.

Question: Which results are given for `COc1ccc(Nc2nc(-c3cc4cc(OC)ccc4oc3=O)cs2)c(OC)c1`?
Answer: EC50 (Plasmodium falciparum [1]): > 12500 nM; EC50 (Plasmodium falciparum [2]): > 7470 nM; CC50 [3]: > 100000 nM

Question: With `CCOc1ccc(OCc2nnc(S)n2N)cc1` as the compound, how does the EC50 (Plasmodium falciparum [1]) read?
Answer: Its EC50 is > 1250 nM.

Question: What about the EC50 (Plasmodium falciparum [2]) of the same compound?
Answer: The EC50 was > 752 nM.

Question: What about the CC50 [3] of the same compound?
Answer: Its CC50 is > 10000 nM.

Question: With `O=C1c2ccccc2-c2nc3c(Cl)cc(C(F)(F)F)cc3nc21` as the compound, how does the EC50 (Plasmodium falciparum [1]) read?
Answer: The EC50 was 1040 nM.

Question: What about the EC50 (Plasmodium falciparum [2]) of the same compound?
Answer: The EC50 was 747 nM.

Question: And the CC50 [3]?
Answer: The CC50 was > 10000 nM.

Question: With `CCCN(CC(=O)Nc1cc(C(C)(C)C)nn1-c1cccc(C)c1C)C(=O)C(C)(C)C` as the compound, how does the EC50 (Plasmodium falciparum [1]) read?
Answer: The EC50 was > 1250 nM.

Question: And the EC50 (Plasmodium falciparum [2])?
Answer: The EC50 was > 763 nM.

Question: What about the CC50 [3] of the same compound?
Answer: The CC50 was > 10000 nM.

Question: Which results are given for `C1CCC(NP2(NC3CCCCC3)=NP(NC3CCCCC3)(NC3CCCCC3)=NP(NC3CCCCC3)(NC3CCCCC3)=N2)CC1`?
Answer: EC50 (Plasmodium falciparum [1]): 6610 nM; EC50 (Plasmodium falciparum [2]): 3150 nM; CC50 [3]: 41400 nM

Question: What does the source list for `Nc1ccc(-c2nc(-c3ccc(N)cc3)c3ccccc3n2)cc1`?
Answer: EC50 (Plasmodium falciparum [1]): > 1250 nM; EC50 (Plasmodium falciparum [2]): 759 nM; CC50 [3]: > 10000 nM

Question: Which EC50 (Plasmodium falciparum [1]) does the source give for `CCOc1ccc(NC(=O)C(C)Sc2nc3ccccc3[nH]2)cc1` (stereo not given) here?
Answer: The EC50 was > 12500 nM.

Question: What about the EC50 (Plasmodium falciparum [2]) of the same compound?
Answer: Its EC50 is > 7600 nM.

Question: And the CC50 [3]?
Answer: Its CC50 is > 100000 nM.

Question: What does the source list for `CC(C)c1cccc(C(C)C)c1NC(=O)N(Cc1ccccc1)C(C)c1nc2ccccc2c(=O)n1-c1ccccc1` (stereo not given)?
Answer: EC50 (Plasmodium falciparum [1]): 1310 nM; EC50 (Plasmodium falciparum [2]): 738 nM; CC50 [3]: > 10000 nM

Question: Which EC50 (Plasmodium falciparum [1]) does the source give for `COc1ccc(CC(=O)NCCCCNc2ccnc3cc(Cl)ccc23)cc1` here?
Answer: Its EC50 is 550 nM.

Question: What about the EC50 (Plasmodium falciparum [2]) of the same compound?
Answer: Its EC50 is 345 nM.

Question: And the CC50 [3]?
Answer: Its CC50 is 4500 nM.

Question: For `N#Cc1cc2nc3c(nc2cc1C#N)-c1ccccc1C3=O`, which EC50 (Plasmodium falciparum [1]) is on record?
Answer: Its EC50 is 6970 nM.

Question: What about the EC50 (Plasmodium falciparum [2]) of the same compound?
Answer: Its EC50 is 2560 nM.

Question: What about the CC50 [3] of the same compound?
Answer: Its CC50 is 33200 nM.

Question: Which results are given for `COc1cc(/C=C/C(=O)Nc2ccc3nc(N4CCN(c5ncccn5)CC4)cc(C)c3c2)cc(OC)c1OC`?
Answer: EC50 (Plasmodium falciparum [1]): 1330 nM; EC50 (Plasmodium falciparum [2]): 739 nM; CC50 [3]: > 10000 nM

Question: For `CC(C)C1Oc2cc3oc(=O)ccc3cc2C1=NO` (stereo not given), which EC50 (Plasmodium falciparum [1]) is on record?
Answer: The EC50 was > 1150 nM.

Question: What about the EC50 (Plasmodium falciparum [2]) of the same compound?
Answer: Its EC50 is 743 nM.

Question: What about the CC50 [3] of the same compound?
Answer: The CC50 was > 10000 nM.

Question: What does the source list for `Cc1cccc(-c2cc3nc(C)c(C)c(O)n3n2)c1`?
Answer: EC50 (Plasmodium falciparum [1]): > 9720 nM; EC50 (Plasmodium falciparum [2]): 7540 nM; CC50 [3]: > 100000 nM

Question: For `Cc1sc2ncn(CC(=O)N(C)Cc3ccccc3)c(=O)c2c1S(=O)(=O)N1CCOCC1`, which EC50 (Plasmodium falciparum [1]) is on record?
Answer: The EC50 was > 1250 nM.

Question: What about the EC50 (Plasmodium falciparum [2]) of the same compound?
Answer: The EC50 was > 770 nM.

Question: And the CC50 [3]?
Answer: The CC50 was > 10000 nM.

Question: For `CCN(CC)c1ccc2c(C)cc(Nc3ccccc3)[o+]c2c1`, which EC50 (Plasmodium falciparum [1]) is on record?
Answer: Its EC50 is 239 nM.

Question: What about the EC50 (Plasmodium falciparum [2]) of the same compound?
Answer: The EC50 was 746 nM.

Question: What about the CC50 [3] of the same compound?
Answer: Its CC50 is > 10000 nM.

Question: Which EC50 (Plasmodium falciparum [1]) does the source give for `CCCC(=O)N1CCN(C(=O)c2nc(-c3ccccc3)nc(CCC)c2C(=O)OCC)CC1C` (stereo not given) here?
Answer: The EC50 was 1200 nM.

Question: What about the EC50 (Plasmodium falciparum [2]) of the same compound?
Answer: Its EC50 is 774 nM.

Question: What about the CC50 [3] of the same compound?
Answer: Its CC50 is > 10000 nM.

Question: For `CCCCOc1ccc(-c2nnc(-c3ccc(C)cc3)n2-c2ccccc2)cc1`, which EC50 (Plasmodium falciparum [1]) is on record?
Answer: The EC50 was > 1200 nM.

Question: What about the EC50 (Plasmodium falciparum [2]) of the same compound?
Answer: The EC50 was > 777 nM.

Question: What about the CC50 [3] of the same compound?
Answer: Its CC50 is > 10000 nM.

Question: For `Cc1ccc2ncnc(Nc3cccc(C(F)(F)F)c3)c2c1`, which EC50 (Plasmodium falciparum [1]) is on record?
Answer: Its EC50 is 947 nM.

Question: What about the EC50 (Plasmodium falciparum [2]) of the same compound?
Answer: Its EC50 is 2170 nM.

Question: What about the CC50 [3] of the same compound?
Answer: Its CC50 is 27900 nM.

Question: Which results are given for `Cc1ccc(C(C(=O)NC(C)(C)C)N(C(=O)c2ccc(-c3ccccc3)[nH]2)c2ccc(C3CCCCC3)cc2)o1` (stereo not given)?
Answer: EC50 (Plasmodium falciparum [1]): 337 nM; EC50 (Plasmodium falciparum [2]): 765 nM; CC50 [3]: > 10000 nM

Question: Which results are given for `O=C(NNc1c2ccccc2nc2ccccc12)Nc1ccccc1`?
Answer: EC50 (Plasmodium falciparum [1]): 873 nM; EC50 (Plasmodium falciparum [2]): 756 nM; CC50 [3]: > 10000 nM

Question: With `Cn1c(COc2ccc(Cl)cc2Cl)[n+](C)c2ccccc21` as the compound, how does the EC50 (Plasmodium falciparum [1]) read?
Answer: Its EC50 is 261 nM.

Question: And the EC50 (Plasmodium falciparum [2])?
Answer: The EC50 was 773 nM.

Question: What about the CC50 [3] of the same compound?
Answer: The CC50 was > 10000 nM.

Question: For `CCC(=O)N1CCc2cc(Br)cc(S(=O)(=O)N3CCN(CC)CC3)c21`, which EC50 (Plasmodium falciparum [1]) is on record?
Answer: The EC50 was > 1630 nM.

Question: And the EC50 (Plasmodium falciparum [2])?
Answer: Its EC50 is > 744 nM.

Question: What about the CC50 [3] of the same compound?
Answer: The CC50 was > 10000 nM.

Question: Which results are given for `Cc1ccc(-n2c(C(C)N(Cc3ccco3)C(=O)C3CCC3)nc3cc(Cl)ccc3c2=O)cc1` (stereo not given)?
Answer: EC50 (Plasmodium falciparum [1]): > 1680 nM; EC50 (Plasmodium falciparum [2]): 208 nM; CC50 [3]: > 2760 nM

Question: Which EC50 (Plasmodium falciparum [1]) does the source give for `NC(=O)Oc1ccc(Cc2ccccc2)cc1` here?
Answer: The EC50 was 843 nM.

Question: What about the EC50 (Plasmodium falciparum [2]) of the same compound?
Answer: The EC50 was 738 nM.

Question: And the CC50 [3]?
Answer: Its CC50 is > 10000 nM.
